Patent publication US9290478B2, “Substituted quinoxalines as FGFR kinase inhibitors” (ASTEX THERAPEUTICS LTD, priority 2010, dated 2016)

Columns and labels:
FGFR2 (h) = FGFR2 (h) (Homo sapiens, UniProt P21802); experiment: FGFR2 (enzymatic assay), TR-FRET; type: biochemical; conditions: 0.4 μM ATP; read-out: FGFR2 pIC50 (converted)
Procedure: In a final reaction volume of 30 μL, FGFR2 (h) (150 ng/ml) was incubated with 50 mM HEPES pH 7.5, 6 mM MnCl2, 1 mM DTT, 0.1 mM Na3VO4, 0.01% Triton-X-100, 500 nM Btn-Flt3 and 0.4 μM ATP in the presence of compound (1% DMSO final). After incubation for 60 minutes at room temperature the reaction was stopped with 2.27 nM EU-anti P-Tyr, 7 mM EDTA, 31.25 nM SA-XL-665 and 0.02% BSA which was present for 60 minutes at room temperature. Time-Resolved Fluorescence Resonance Energy Transfer (TR-FRET) signal (ex340 nm. Em 620 nm, em 655 nm) was measured afterwards and results are expressed in (Relative Fluorescence Units). In this assay, the inhibitory effect of different compound concentrations (range 10 μM to 0.1 nM) was determined and used to calculate an IC50 (M) and pIC50 (−log IC50) value.

VEGFR2 = target: T1, VEGFR2 (Homo sapiens, UniProt P35968); experiment: Biological Assays B: VEGFR2 in vitro kinase inhibitory activity assay; type: biochemical; conditions: 0.5 μM ATP, read-out: VEGFR2 pIC50 (converted)
T1 construct: purchased Upstate
Procedure: (§1) Biological Assays B FGFR3, VEGFR2 and PDGFR In Vitro Kinase Inhibitory Activity Assays
(§2) Enzymes (from Upstate), prepared at 2× final concentration, were incubated with test compounds, biotinylated Fit3 substrate (biotin-VASSDNEYFYVDF) (Cell Signalling Technology Inc.) and ATP in the appropriate assay buffer (Table 1). The reaction was allowed to proceed for 3 hours (FGFR3), 1 hour (VEGFR2, PDGFR-beta) at room temperature on a plate shaker at 700 rpm before being stopped with 35 mM EDTA, pH 8 (FGFR3, VEGFR2) or 55 mM EDTA, pH 8 (PDGFR-beta). 5× detection mix (50 mM HEPES pH 7.5, 0.1% BSA, 11.34 nM Eu-anti-pY (PY20) (PerkinElmer) 74 nM SA-XL665 (Cisbio) for FGFR3, 50 mM HEPES, pH 7.5, 0.1% BSA, 11.34 nM Eu-anti-pY (PY20), 187.5 nM SA-XL665 for VEGFR2 and 50 mM HEPES, pH 7.5, 0.1% BSA, 11.34 nM Eu-anti-pY (PT66) (PerkinElmer), 375 nM SA-XL665 (Cisbio) for PDGFR-beta) was then added to each well and the plate sealed and incubated at room temperature for one hour on a plate shaker at 700 rpm. The plate was then read on a Packard Fusion plate reader or a BMG Pherastar both in TRF mode.

Ba/F3-TEL-FGFR3 cells = target: T2, Ba/F3-TEL-FGFR3 cells (Homo sapiens, UniProt P22607); experiment: Ba/F3-TEL-FGFR3 cell proliferation assay; type: cell-based; conditions: 72 hours
T2 construct: fused on or other part: P41212 (Transcription factor ETV6)
Procedure: (§3) Ba/F3-TEL-FGFR3 & Ba/F3 (WT) Cell Proliferation Assays
(§4) Stably transfected Ba/F3-TEL-FGFR3 cells were plated out into black 96-well tissue culture plates with clear bottoms in RPMI medium containing 10% FBS and 0.25 mg/ml G418 at a density of 5×10^3 cells/well (200 μl per well). The parental wild-type Ba/F3 cells (DSMZ no.: ACC 300) were plated out into black 96-well tissue culture plates with clear bottoms in RPMI medium containing 10% FBS and 2 ng/ml mouse IL-3 (R&D Sysems) at a density of 2.5×10^3 cells/well (200 μl per well). Plates were placed in an incubator overnight before adding the compounds the following day. Dilutions of compounds were made in DMSO starting at 10 mM and were diluted into the wells to give a final DMSO concentration of 0.1% in assay. Compounds were left on the cells for 72 hours before the plates were removed from the incubator and 20 μl of Alamar Blue™ (Biosource) was added to each well. Plates were placed in the incubator for 4-6 hours before reading plates at 535 nm (excitation)/590 nm (emission) on a Fusion plate reader (Packard). Where inhibition is high an IC50 can be determined.

[1] = system: parental wild-type Ba/F3 cells; experiment: Ba/F3 (WT) cell proliferation assay; type: cell-based; conditions: BaF3; 72 hours, 2 ng/ml mouse IL-3; read-out: BAF3_WT pIC50 (converted)
Procedure: as §3, §4

FGFR3 = target: T3, FGFR3 (Homo sapiens, UniProt P22607); experiment: Biological Assays B: FGFR3 in vitro kinase inhibitory activity assay; type: biochemical; conditions: 8 μM ATP, read-out: FGFR3 pIC50 (converted)
T3 construct: purchased Upstate
Procedure: as §1, §2

Sequence of FGFR2 (h) (P21802 22-821): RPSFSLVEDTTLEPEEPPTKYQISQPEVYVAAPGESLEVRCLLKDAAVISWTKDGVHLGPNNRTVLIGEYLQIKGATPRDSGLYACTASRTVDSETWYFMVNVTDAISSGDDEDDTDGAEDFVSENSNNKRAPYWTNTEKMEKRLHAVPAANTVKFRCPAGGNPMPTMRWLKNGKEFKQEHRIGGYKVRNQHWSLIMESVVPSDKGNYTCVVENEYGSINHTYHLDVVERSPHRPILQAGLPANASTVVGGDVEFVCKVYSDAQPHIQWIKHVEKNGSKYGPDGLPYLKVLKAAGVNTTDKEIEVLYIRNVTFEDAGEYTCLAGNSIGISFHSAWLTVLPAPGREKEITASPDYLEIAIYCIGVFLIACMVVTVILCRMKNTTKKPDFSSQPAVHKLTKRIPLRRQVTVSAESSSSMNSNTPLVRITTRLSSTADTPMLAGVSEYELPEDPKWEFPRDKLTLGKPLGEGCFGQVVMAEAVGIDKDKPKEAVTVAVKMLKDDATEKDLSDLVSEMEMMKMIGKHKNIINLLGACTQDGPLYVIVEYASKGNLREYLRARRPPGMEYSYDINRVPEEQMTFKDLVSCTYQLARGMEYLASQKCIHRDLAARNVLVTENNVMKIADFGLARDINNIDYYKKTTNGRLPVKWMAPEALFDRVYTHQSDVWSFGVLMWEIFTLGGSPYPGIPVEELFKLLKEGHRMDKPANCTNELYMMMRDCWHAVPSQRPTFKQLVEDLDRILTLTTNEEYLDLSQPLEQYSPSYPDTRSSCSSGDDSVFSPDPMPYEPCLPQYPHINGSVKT
T1 sequence (P35968 20-1356): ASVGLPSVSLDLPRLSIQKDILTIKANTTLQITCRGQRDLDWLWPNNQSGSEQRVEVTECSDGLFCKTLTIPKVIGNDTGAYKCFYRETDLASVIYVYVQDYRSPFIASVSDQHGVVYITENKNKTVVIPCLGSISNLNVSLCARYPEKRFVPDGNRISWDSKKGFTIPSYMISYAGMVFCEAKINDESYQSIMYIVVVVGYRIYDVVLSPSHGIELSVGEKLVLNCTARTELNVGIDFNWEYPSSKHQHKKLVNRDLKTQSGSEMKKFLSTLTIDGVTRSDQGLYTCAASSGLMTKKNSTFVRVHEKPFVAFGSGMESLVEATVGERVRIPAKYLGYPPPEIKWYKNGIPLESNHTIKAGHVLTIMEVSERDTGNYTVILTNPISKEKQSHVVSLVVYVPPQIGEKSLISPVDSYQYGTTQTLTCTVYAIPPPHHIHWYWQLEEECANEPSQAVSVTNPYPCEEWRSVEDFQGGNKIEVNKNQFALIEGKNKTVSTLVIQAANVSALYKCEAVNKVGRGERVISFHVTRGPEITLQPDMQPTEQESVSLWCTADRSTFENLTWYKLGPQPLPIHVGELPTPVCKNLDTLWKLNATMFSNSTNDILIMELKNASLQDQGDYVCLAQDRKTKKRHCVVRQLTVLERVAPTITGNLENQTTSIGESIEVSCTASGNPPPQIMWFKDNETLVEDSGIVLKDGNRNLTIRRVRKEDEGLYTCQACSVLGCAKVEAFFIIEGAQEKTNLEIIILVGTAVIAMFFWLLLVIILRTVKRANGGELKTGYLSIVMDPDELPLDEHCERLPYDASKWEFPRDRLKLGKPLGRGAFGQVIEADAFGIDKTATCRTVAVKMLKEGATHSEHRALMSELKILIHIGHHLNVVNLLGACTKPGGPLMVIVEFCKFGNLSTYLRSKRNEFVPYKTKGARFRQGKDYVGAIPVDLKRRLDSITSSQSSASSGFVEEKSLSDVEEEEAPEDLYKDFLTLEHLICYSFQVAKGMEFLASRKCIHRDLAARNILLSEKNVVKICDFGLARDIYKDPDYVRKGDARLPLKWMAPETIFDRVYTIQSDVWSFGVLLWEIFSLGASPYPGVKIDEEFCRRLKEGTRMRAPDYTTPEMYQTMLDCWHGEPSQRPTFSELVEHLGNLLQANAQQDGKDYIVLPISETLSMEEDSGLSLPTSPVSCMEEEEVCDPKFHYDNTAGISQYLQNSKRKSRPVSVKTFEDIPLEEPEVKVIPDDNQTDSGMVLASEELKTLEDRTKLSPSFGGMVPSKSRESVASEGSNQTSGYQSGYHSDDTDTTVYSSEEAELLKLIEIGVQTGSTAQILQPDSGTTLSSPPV
T2 sequence (P22607 whole entry, change not shown, the tested form may be a part): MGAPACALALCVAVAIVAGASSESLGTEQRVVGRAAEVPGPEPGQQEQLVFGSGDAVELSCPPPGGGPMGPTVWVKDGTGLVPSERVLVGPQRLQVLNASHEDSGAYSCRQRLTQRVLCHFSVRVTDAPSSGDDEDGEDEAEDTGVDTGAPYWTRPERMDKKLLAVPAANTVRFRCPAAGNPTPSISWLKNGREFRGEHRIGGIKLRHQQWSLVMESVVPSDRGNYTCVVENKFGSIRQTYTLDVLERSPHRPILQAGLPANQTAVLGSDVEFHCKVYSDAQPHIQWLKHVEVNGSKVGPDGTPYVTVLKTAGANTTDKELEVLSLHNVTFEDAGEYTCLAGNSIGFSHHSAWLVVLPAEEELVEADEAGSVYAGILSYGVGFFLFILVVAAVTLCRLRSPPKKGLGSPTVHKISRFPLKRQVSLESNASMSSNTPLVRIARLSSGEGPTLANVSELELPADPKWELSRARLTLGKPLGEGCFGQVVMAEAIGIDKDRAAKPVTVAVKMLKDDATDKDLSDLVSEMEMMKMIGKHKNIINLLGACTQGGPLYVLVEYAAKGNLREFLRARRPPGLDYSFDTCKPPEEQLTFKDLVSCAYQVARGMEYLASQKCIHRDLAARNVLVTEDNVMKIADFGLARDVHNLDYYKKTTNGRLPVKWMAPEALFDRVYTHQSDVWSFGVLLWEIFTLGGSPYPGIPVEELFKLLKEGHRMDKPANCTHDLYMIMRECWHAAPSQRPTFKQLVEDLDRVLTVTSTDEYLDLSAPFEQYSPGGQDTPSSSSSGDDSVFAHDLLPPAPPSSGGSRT
T3 sequence (P22607 23-806): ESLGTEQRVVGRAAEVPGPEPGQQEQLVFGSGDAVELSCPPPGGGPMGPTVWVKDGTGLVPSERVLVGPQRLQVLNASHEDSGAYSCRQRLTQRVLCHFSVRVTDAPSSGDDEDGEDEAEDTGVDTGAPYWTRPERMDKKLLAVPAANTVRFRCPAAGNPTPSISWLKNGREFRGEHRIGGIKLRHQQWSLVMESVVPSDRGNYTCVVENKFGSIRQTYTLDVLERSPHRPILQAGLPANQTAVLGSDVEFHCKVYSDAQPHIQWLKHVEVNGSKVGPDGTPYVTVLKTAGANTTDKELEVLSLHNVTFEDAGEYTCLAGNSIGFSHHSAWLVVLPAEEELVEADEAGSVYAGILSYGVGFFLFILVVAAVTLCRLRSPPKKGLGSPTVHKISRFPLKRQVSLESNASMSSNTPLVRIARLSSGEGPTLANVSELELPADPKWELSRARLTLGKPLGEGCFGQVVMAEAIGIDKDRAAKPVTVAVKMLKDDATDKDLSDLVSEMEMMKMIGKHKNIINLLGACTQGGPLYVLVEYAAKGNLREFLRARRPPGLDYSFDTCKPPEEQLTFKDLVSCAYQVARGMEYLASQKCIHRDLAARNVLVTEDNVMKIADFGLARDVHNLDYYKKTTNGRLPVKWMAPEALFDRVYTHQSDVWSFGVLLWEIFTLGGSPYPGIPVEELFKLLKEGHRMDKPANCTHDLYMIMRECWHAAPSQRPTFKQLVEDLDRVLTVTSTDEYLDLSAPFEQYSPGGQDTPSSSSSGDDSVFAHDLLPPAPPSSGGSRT

| Structure (SMILES) | IC50 (FGFR2 (h)) | melting point | also measured |
| --- | --- | --- | --- |
| COc1cc(OC)cc(C(O)(CNCCNC(C)C)c2ccc3ncc(-c4cnn(C)c4)nc3c2)c1 (single isomer, unassigned) [Compound 5] | ~741 nM | – | – |
| COc1cc(OC)cc(C(O)(CNCCNC(C)C)c2ccc3ncc(-c4cnn(C)c4)nc3c2)c1 (single isomer, unassigned) [Compound 6] | 813 nM | – | – |
| COc1cc(OC)cc(C(CCNC(C)C)c2ccc3ncc(-c4cnn(C)c4)nc3c2)c1 (single isomer, unassigned) [Compound 19a] | 17.8 nM | – | – |
| COc1cc(OC)cc(C(NCCNC(C)C)c2ccc3ncc(-c4cnn(C)c4)nc3c2)c1.Cl (single isomer, unassigned) [Compound 24] | 324 nM | – | – |
| COc1cc(OC)cc(C(CCNC(C)C)c2ccc3ncc(-c4cnn(C)c4)nc3c2)c1 (single isomer, unassigned) [Compound 32a] | 851 nM | – | – |
| CNCC(O)(c1cc(OC)cc(OC)c1)c1ccc2ncc(-c3cnn(C)c3)nc2c1.Cl (single isomer, unassigned) [Compound 37] | 589 nM | 174 °C | – |
| CNCC(O)(c1cc(OC)cc(OC)c1)c1ccc2ncc(-c3cnn(C)c3)nc2c1.Cl (single isomer, unassigned) [Compound 38] | > 1000 nM | 169 °C | – |
| COc1cc(OC)cc(C(NCCNC(C)C)c2ccc3ncc(-c4cnn(C)c4)nc3c2)c1.Cl (single isomer, unassigned) [Compound 39] | > 1000 nM | – | – |
| COc1cc(OC)cc(C(=O)c2ccc3ncc(-c4cnn(C)c4)nc3c2)c1 [Compound 2] | 209 nM | 162 °C | – |
| COc1cc(OC)cc(/C(=C/C#N)c2ccc3ncc(-c4cnn(C)c4)nc3c2)c1 [Compound 3] | 5130 nM | 223 °C | – |
| COc1cc(OC)cc(/C(=C\C#N)c2ccc3ncc(-c4cnn(C)c4)nc3c2)c1 [Compound 4] | 102 nM | 204 °C | – |
| COc1cc(OC)cc(C(CCN2CCCC2=O)c2ccc3ncc(-c4cnn(C)c4)nc3c2)c1.Cl (stereo not drawn) [Compound 7] | 38 nM | – | – |
| COc1cc(OC)cc(/C(=C\CNC(C)C)c2ccc3ncc(-c4cnn(C)c4)nc3c2)c1 [Compound 8, {(Z)-3-(3,5-Dimethoxy-phenyl)-3-[3-(1-methyl-1H-pyrazol-4-yl)-quinoxalin-6-yl]-allyl}-isopropyl-amine] | 10.7 nM | 164 °C | – |
| COc1cc(OC)cc(/C(=C/CNC(C)C)c2ccc3ncc(-c4cnn(C)c4)nc3c2)c1 [Compound 9] | 87.1 nM | – | – |
| COc1cc(OC)cc(/C(=C\CN(C)C)c2ccc3ncc(-c4cnn(C)c4)nc3c2)c1 [Compound 10, {(Z)-3-(3,5-Dimethoxy-phenyl)-3-[3-(1-methyl-1H-pyrazol-4-yl)-quinoxalin-6-yl]-allyl}-dimethyl-amine] | 15.8 nM | 164 °C | – |
| COc1cc(OC)cc(/C(=C\CNCC(F)(F)F)c2ccc3ncc(-c4cnn(C)c4)nc3c2)c1 [Compound 14, {(Z)-3-(3,5-Dimethoxy-phenyl)-3-[3-(1-methyl-1H-pyrazol-4-yl)-quinoxalin-6-yl]-allyl}-(2,2,2-trifluoro-ethyl)-amine] | 12.9 nM | – | – |
| COc1cc(OC)cc(C(CC#N)c2ccc3ncc(-c4cnn(C)c4)nc3c2)c1 (stereo not drawn) [Compound 18] | 145 nM | – | IC50 (VEGFR2): 6310 nM |
| COc1cc(OC)cc(C(CCN)c2ccc3ncc(-c4cnn(C)c4)nc3c2)c1.Cl (stereo not drawn) [Compound 20] | 67.6 nM | 211 °C | IC50 (VEGFR2): 3160 nM |
| COc1cc(OC)cc(C(CCN(C)C)c2ccc3ncc(-c4cnn(C)c4)nc3c2)c1.Cl (stereo not drawn) [Compound 21] | 67.6 nM | – | – |
| COc1cc(OC)cc(C(CCO)c2ccc3ncc(-c4cnn(C)c4)nc3c2)c1 (stereo not drawn) [Compound 22] | 126 nM | 114 °C | BAF3_TEL_FGFR3 pIC50 (Ba/F3-TEL-FGFR3 cells): 6.85; IC50 (VEGFR2): 3980 nM |
| COc1cc(OC)cc(C(CC(=O)NC(C)C)c2ccc3ncc(-c4cnn(C)c4)nc3c2)c1 (stereo not drawn) [Compound 23] | > 1000 nM | 186 °C | – |
| COc1cc(OC)cc(C(CC(C)(O)CNC(C)C)c2ccc3ncc(-c4cnn(C)c4)nc3c2)c1.Cl (stereo not drawn) [Compound 25] | ~1000 nM | – | – |
| Cn1cc(-c2cnc3ccc(C(O)c4ccccc4)cc3n2)cn1 (stereo not drawn) [Compound 28] | 2630 nM | – | – |
| COc1cc(OC)cc(C(CCNC(C)C)c2ccc3ncc(-c4cnn(C)c4)nc3c2)c1.Cl (stereo not drawn) [Compound 29, {3-(3,5-Dimethoxy-phenyl)-3-[3-(1-methyl-1H-pyrazol-4-yl)-quinoxalin-6-yl]-propyl}-isopropyl-amine] | 25.7 nM | 148 °C | IC50 [1]: 5010 nM; BAF3_TEL_FGFR3 pIC50 (Ba/F3-TEL-FGFR3 cells): 7.7; IC50 (VEGFR2): 1000 nM; IC50 (FGFR3): 20 nM |
| COc1cc(OC)cc(C2(c3ccc4ncc(-c5cnn(C)c5)nc4c3)CC2)c1 [Compound 30] | 50.1 nM | 140 °C | IC50 (VEGFR2): 282 nM; IC50 (FGFR3): 20 nM |
| COc1cc(OC)cc(C(CCNCC(F)(F)F)c2ccc3ncc(-c4cnn(C)c4)nc3c2)c1.Cl (stereo not drawn) [Compound 33] | 380 nM | 162 °C | – |
| COc1cc(OC)cc(/C(=C/CN(C)C)c2ccc3ncc(-c4cnn(C)c4)nc3c2)c1 [Compound 34] | 170 nM | 177 °C | – |
| CN(C)CCC(c1ccccc1)c1ccc2ncc(-c3cnn(C)c3)nc2c1 (stereo not drawn) [Compound 35] | > 1000 nM | – | – |
| COc1cc(OC)cc(C(CCCN)c2ccc3ncc(-c4cnn(C)c4)nc3c2)c1.Cl (stereo not drawn) [Compound 40] | 427 nM | 140 °C | – |
